Data from patent US20240251792A1, “WEED CONTROL METHOD” (SYNGENTA CROP PROTECTION AG, priority 2021, published 2024).
Read-outs that look alike come from different tables or passages of the source.

Columns and labels:
Type in all cases: in vivo
AMARE [1] = experiment: Biological efficacy, post-emergence glasshouse test (Table 2); settings: 1000 g/ha, after 12 days
Outline: (§1)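 Spray at 1000 g/ha (acetone/water/Tween 20, 49.75:49.75:0.5); pre-emergence applied 1 d after sowing, post-emergence 7 d. Glasshouse 24/16 °C, 14 h light, 65% RH, watered twice daily. Scored at 12 d, 0–100 damage.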

DIGSA [2] = experiment: as above; settings: 1000 g/ha, after 12 days
Outline: as §1

LOLPE [3] = experiment: as above; settings: 1000 g/ha, after 12 days
Outline: as §1

STEME [4] = experiment: as above; settings: 1000 g/ha, after 12 days
Outline: as §1

AMARE [5] = experiment: Biological efficacy, pre-emergence glasshouse test (Table 2); settings: 1000 g/ha, after 12 days
Outline: as §1

DIGSA [6] = experiment: as above; settings: 1000 g/ha, after 12 days
Outline: as §1

LOLPE [7] = experiment: as above; settings: 1000 g/ha, after 12 days
Outline: as §1

STEME [8] = experiment: as above; settings: 1000 g/ha, after 12 days
Outline: as §1

AMARE [9] = experiment: Pre-emergence biological efficacy (Table 3); settings: 1000 g/ha, after 13 days
Outline: (§2)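 Seeds were sown in standard soil in pots, kept one day in a glasshouse (24/19 °C day/night, 16 h light), then sprayed with an aqueous dilution in 0.2% Genapol X080 of a 50 g/l stock in acetone/AMA emulsifier mix. Damage was scored visually after 13 days (0 = none, 100 = total).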

ECHCG = experiment: Pre-emergence biological efficacy (Table 3); settings: 1000 g/ha, after 13 days
Outline: as §2

IPOHE = experiment: Pre-emergence biological efficacy (Table 3); settings: 1000 g/ha, after 13 days
Outline: as §2

LOLPE [10] = experiment: Pre-emergence biological efficacy (Table 3); settings: 1000 g/ha, after 13 days
Outline: as §2

SETFA = experiment: Pre-emergence biological efficacy (Table 3); settings: 1000 g/ha, after 13 days
Outline: as §2

SOLNI = experiment: Pre-emergence biological efficacy (Table 3); settings: 1000 g/ha, after 13 days
Outline: as §2

weeds and/or crops = experiment: Post-emergence biological efficacy (Table 4); settings: 1000 g/ha, evaluated after 13 days; for pest or weed control at 1000 g/ha: 312 h
Outline: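 Weeds and crops were grown 14 days in a glasshouse, then sprayed post-emergence with compound formulated in acetone/F50 and diluted in 0.2% Genapol X080 to the final dose. Damage was scored after 13 days on a 0–100 scale, where 100 is total damage.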

SMILES	score (100=total damage to plant, 0=no damage to plant) (AMARE [1])	score (100=total damage to plant, 0=no damage to plant) (DIGSA [2])	score (100=total damage to plant, 0=no damage to plant) (LOLPE [3])	score (100=total damage to plant, 0=no damage to plant) (STEME [4])	score (100=total damage to plant, 0=no damage to plant) (AMARE [5])	score (100=total damage to plant, 0=no damage to plant) (DIGSA [6])	score (100=total damage to plant, 0=no damage to plant) (LOLPE [7])	score (100=total damage to plant, 0=no damage to plant) (STEME [8])	evaluation (100=total damage to plant; 0=no damage to plant) (LOLPE [10])	evaluation (100=total damage to plant; 0=no damage to plant) (SOLNI)	damage to plant LOLPE (100=total damage; 0=no damage) (weeds and/or crops)	damage to plant SOLNI (100=total damage; 0=no damage) (weeds and/or crops)	also measured
COc1ccccc1C(F)(F)C(=O)O [Compound 1-9]	90	0	0	80	80	0	0	60	20	90	0	60	evaluation (100=total damage to plant; 0=no damage to plant) (AMARE [9]): 70; evaluation (100=total damage to plant; 0=no damage to plant) (ECHCG): 20; evaluation (100=total damage to plant; 0=no damage to plant) (IPOHE): 60; evaluation (100=total damage to plant; 0=no damage to plant) (SETFA): 20; damage to plant AMARE (100=total damage; 0=no damage) (weeds and/or crops; AMARE): 70; damage to plant ECHCG (100=total damage; 0=no damage) (weeds and/or crops; ECHCG): 0; damage to plant IPOHE (100=total damage; 0=no damage) (weeds and/or crops; IPOHE): 60; damage to plant SETFA (100=total damage; 0=no damage) (weeds and/or crops; SETFA): 0
O=C(O)C(F)(F)c1cccc2ccccc12 [Compound 1-397, 2,2-Difluoro-2-(1-naphthyl)acetic acid]	70	0	0	80	90	30	70	90	40	100	10	80	pest or weed control at 1000 g/ha (AMARE [9]; Amaranthus retroflexus, 312 h, read-out: evaluation (100=total damage to plant; 0=no damage to plant)): 80%; pest or weed control at 1000 g/ha (ECHCG; Echinochloa crus-galli, 312 h, read-out: evaluation (100=total damage to plant; 0=no damage to plant)): 60%; pest or weed control at 1000 g/ha (IPOHE; Ipomoea hederacea, 312 h, read-out: evaluation (100=total damage to plant; 0=no damage to plant)): 80%; pest or weed control at 1000 g/ha (SETFA; Setaria faberi, 312 h, read-out: evaluation (100=total damage to plant; 0=no damage to plant)): 20%; pest or weed control at 1000 g/ha (weeds and/or crops; Amaranthus retroflexus, AMARE, read-out: damage to plant AMARE (100=total damage; 0=no damage)): 70%; pest or weed control at 1000 g/ha (weeds and/or crops; Echinochloa crus-galli, ECHCG, read-out: damage to plant ECHCG (100=total damage; 0=no damage)): 20%; pest or weed control at 1000 g/ha (weeds and/or crops; Ipomoea hederacea, IPOHE, read-out: damage to plant IPOHE (100=total damage; 0=no damage)): 70%; pest or weed control at 1000 g/ha (weeds and/or crops; Setaria faberi, SETFA, read-out: damage to plant SETFA (100=total damage; 0=no damage)): 10%
